Test results published in patent publication US12600925B2, “Laundry sanitizing and softening compositions” (Reckitt Benckiser LLC, priority 2023, dated 2026).

Test system: Staphylococcus epidermidis
Test: Minimum inhibitory concentration, BKC / polymer synergy, 96-well microtiter
Format: cell-based
Conditions: second test (lower line of each polymer); 24 h, 37° C.; 100% active
Experimental: Take well-defined and typical colonies of Staphylococcus epidermidis from a recent plate of tryptic soy agar (TSA), dissolve and vortex them in a tube containing 30 mL of tryptic soy broth (TSB) and incubate for 17+/−1h at 37° C.+/−1° C. Quantify by plate count in TSA (incubated for 48h+/−1h at 37° C.+/−1° C.). Use the broth culture suspension within seven (7) days after the incubation period. Vortex and take 0.2 mL from the broth culture and dilute in appropriate volume of 0.85% NaCl to normalize the strain at 3-5×10^5 CFU/mL Using a micropipette, add 100 μL of TSB in a 96-well microtiter plate format. […] (both samples are the same) Using a micropipette take 100 μL of the sample from column 2 and dilute it in column 3 performing a 1:1 dilution with the diluent already present in the wells, proceeding with a serial dilution up to column 9. Discard the remaining 100 μL. […] Dispense 100 μL of inoculum using a micropipette into each well in columns 2 to 10. Columns 1 and 11 are the sample sterility test and negative test control columns, respectively. No growth should be observed in these columns. Column 10 is the positive test control and growth should be observed. […] Incubate the microwell plate for 24h+/−1h at 37° C.+/−1° C. The minimum inhibitory concentration (MIC) is determined by visually checking the wells for growth. […]

## C12-16 alkyldimethylbenzylammonium chloride [BKC]
  BKC MIC in ppm alone: 0.3-0.8 ppm
